Where a name gives a salt, the structure may show the parent alone.

A short description of this series: in vitro. The note with it: human, hek293t cells.
On to `COc1ccc([C@H]2C[C@H](NC(=O)C(C)Cl)C2)cc1F` (some centres unmarked) [6-F17, 2-chloro-N-[(1r,3r)-3-(3-fluoro-4-methoxyphenyl)cyclobutyl]propanamide], for which the viability (usually a read-out of living cells in per cent, often relative to untreated cells) at 48 h, 25 µM came to 91.5%.
As for `CC(Cl)C(=O)N1CCn2c(Cc3c(F)cccc3F)nnc2C1` (centres unmarked) [6-F18, 2-chloro-1-{3-[(2,6-difluorophenyl)methyl]-5H,6H,7H,8H-[1,2,4]triazolo[4,3-a]pyrazin-7-yl}propan-1-one], the figure is 100%.
As for `O=C(CCl)NC(CC1CC1)c1ccc(Cl)cn1` (centres unmarked) [6-F19, 2-chloro-N-[1-(5-chloropyridin-2-yl)-2-cyclopropylethyl]acetamide], the figure is 1.46%; as for `CC(Cl)C(=O)N1Cc2ccccc2C(n2cccn2)C1` (centres unmarked) [6-F20, 2-chloro-1-[4-(1H-pyrazol-1-yl)-1,2,3,4-tetrahydroisoquinolin-2-yl]propan-1-one], 103%; as for `CC(Cl)C(=O)NC1(c2nnc[nH]2)CCC1` (centres unmarked) [6-F21, 2-chloro-N-[1-(4H-1,2,4-triazol-3-yl)cyclobutyl]propanamide], 87.6%.
As for `CC(Cl)C(=O)N1CCn2c(C#N)ccc2C1C` (centres unmarked) [6-F22, 2-(2-chloropropanoyl)-1-methyl-1H,2H,3H,4H-pyrrolo[1,2-a]pyrazine-6-carbonitrile], the figure is 98.2%.
Turning to `O=C(CCl)NCCOc1cccc(F)c1` [6-G03, 2-chloro-N-[2-(3-fluorophenoxy)ethyl]acetamide], the viability at 48 h, 25 µM is 97.9%.
With `O=C(CCl)NCc1ccc(C(=O)N2CCCC2)cc1` [6-G04, 2-chloro-N-{[4-(pyrrolidine-1-carbonyl)phenyl]methyl}acetamide], the viability at 48 h, 25 µM was 107%.
`O=C(CCl)NCCOc1cccc(Cl)c1` [6-G05, 2-chloro-N-[2-(3-chlorophenoxy)ethyl]acetamide]: the viability at 48 h, 25 µM stood at 107%.
As to `CC(c1cccc([N+](=O)[O-])c1)N(C)C(=O)CCl` (centres unmarked) [6-G06, 2-chloro-N-methyl-N-[1-(3-nitrophenyl)ethyl]acetamide], the viability at 48 h, 25 µM stood at 1.19%.
Then `CC(Cl)C(=O)Nc1ccc(NC(=O)c2cccs2)cc1` (centres unmarked) [6-G07, N-[4-(2-chloropropanamido)phenyl]thiophene-2-carboxamide], with 101%; and `O=C(CCl)NCc1ccc(OC(F)(F)F)cc1` [6-G08, 2-chloro-N-{[4-(trifluoromethoxy)phenyl]methyl}acetamide], with 1.3%; and `COc1cc2c(cc1NC(=O)C(C)Cl)oc1ccccc12` (centres unmarked) [6-G09, 2-chloro-N-{4-methoxy-8-oxatricyclo[7.4.0.0,2,7]trideca-1(9),2(7),3,5,10,12-hexaen-5-yl}propanamide], with 93%.
Then `CC(Cl)C(=O)Nc1ccccc1C(=O)c1ccccc1` (centres unmarked) [6-G10, N-(2-benzoylphenyl)-2-chloropropanamide], with 102%; and `CC1CN(CCCNC(=O)CCl)CC(C)O1` (centres unmarked) [6-G11, 2-chloro-N-[3-(2,6-dimethylmorpholin-4-yl)propyl]acetamide hydrochloride], with 116%.
Take `O=C(CCl)N1CCC(CCc2ccccc2)CC1` [6-G12, 2-chloro-1-[4-(2-phenylethyl)piperidin-1-yl]ethan-1-one]: the viability at 48 h, 25 µM came to 1.05%.
As for `COc1ccc(S(=O)(=O)N2CCCCC2)cc1NC(=O)CCl` [6-G13, 2-chloro-N-[2-methoxy-5-(piperidine-1-sulfonyl)phenyl]acetamide], the figure is 1.34%; as for `O=C(CCl)Nc1cc(S(=O)(=O)N2CCCC2)ccc1Cl` [6-G14, 2-chloro-N-[2-chloro-5-(pyrrolidine-1-sulfonyl)phenyl]acetamide], 1.44%.
Consider `COc1ccc(Cl)cc1NC(=O)C(C)Cl` (centres unmarked) [6-G16, 2-chloro-N-(5-chloro-2-methoxyphenyl)propanamide], for which the viability at 48 h, 25 µM is 112%.
Then `O=C(CCl)NCC(c1ccccc1Cl)N1CCCC1` (centres unmarked) [6-G17, 2-chloro-N-[2-(2-chlorophenyl)-2-(pyrrolidin-1-yl)ethyl]acetamide hydrochloride], with 104%.

(Values after paper PMC11995724, “Antibiotic target discovery by integrated phenotypic and activity-based profiling of electrophilic fragments” (Cell chemical biology, 2025).)
